One series has as its system BaF3. The series can be described thus: Cytotoxicity against VEGF-A induced mouse BAF3-VEGF-R2 cells at >10 uM. Format: functional, cell-based.
The nature of series [1]: Toxicity in human erythrocytes assessed as hemolytic activity at 50 uM. Format: cell-based, Erythrocyte. To be noted: read-out: Activity.

On to `CC(C)C[C@@H]1NC(=O)CNC(=O)[C@H](CC(N)=O)NC(=O)[C@H](CCCNC(=N)N)NC(=O)[C@H]([C@@H](C)O)NC(=O)[C@H](CS)NC(=O)[C@H](C(C)C)NC(=O)[C@@H]2CCCN2C(=O)[C@H](CCC(=O)O)NC(=O)[C@H](CO)NC(=O)[C@H](CS)NC(=O)[C@H]([C@@H](C)O)NC(=O)[C@H](CS)NC(=O)CNC(=O)[C@@H]2CCCN2C(=O)[C@H]([C@@H](C)O)NC(=O)[C@H](CC(N)=O)NC(=O)[C@H](CS)NC(=O)[C@H]([C@@H](C)O)NC(=O)CNC(=O)CNC(=O)[C@H](C(C)C)NC(=O)[C@H](CS)NC(=O)[C@H]([C@@H](C)O)NC(=O)[C@H](CCC(=O)O)NC(=O)CNC(=O)[C@H](CS)NC(=O)[C@H](C(C)C)NC(=O)[C@@H]2CCCN2C1=O`, for which, in the series with BaF3, the Activity result was “Toxic”. For the compound `CC(C)C[C@@H]1NC(=O)CNC(=O)[C@H](CC(N)=O)NC(=O)[C@H](CCCNC(=N)N)NC(=O)[C@H]([C@@H](C)O)NC(=O)[C@@H]2CSSC[C@@H]3NC(=O)[C@H]([C@@H](C)O)NC(=O)CNC(=O)CNC(=O)[C@H](C(C)C)NC(=O)[C@@H]4CSSC[C@H](NC(=O)[C@H]([C@@H](C)O)NC(=O)[C@H](CSSC[C@H](NC(=O)[C@H](C(C)C)NC(=O)[C@@H]5CCCN5C1=O)C(=O)NCC(=O)N[C@@H](CCC(=O)O)C(=O)N[C@@H]([C@@H](C)O)C(=O)N4)NC(=O)CNC(=O)[C@@H]1CCCN1C(=O)[C@H]([C@@H](C)O)NC(=O)[C@H](CC(N)=O)NC3=O)C(=O)N[C@@H](CO)C(=O)N[C@@H](Cc1c[nH]c3ccccc13)C(=O)N1CCC[C@H]1C(=O)N[C@@H](C(C)C)C(=O)N2` [KALATA B1], the hemolysis at 50 µM in series [1] amounted to 50%.
